For series [1] the following is noted: coadministration of cyclosporine; J Clin Oncol 2001; cited from earlier work.
For series [2] the following is noted: cited from earlier work.
A short description of series [3]: Particle size by SEM. It is filed as physicochemical. Particulars: processed with CO2 at 190 bar, 50° C. and 25° C.
Experimental: SEM images at 2 different magnifications, namely 100× (FIG. 11a) and 2510× (FIG. 11b), of fenofibrate processed at 50° C. and 190 are shown in FIG. 11.
SEM images were taken, using a Hitachi S4500 electron microscope. The samples were chromium coated for 60 seconds with a current of 125 mA, with a Emitech E4500 coater.

Consider `CC(=O)O[C@@]12CO[C@@H]1C[C@H](O)[C@@]1(C)C(=O)[C@H](O)C3=C(C)[C@@H](OC(=O)[C@H](O)[C@@H](NC(=O)OC(C)(C)C)c4ccccc4)C[C@@](O)([C@@H](OC(=O)c4ccccc4)[C@H]21)C3(C)C` [docetaxel], for which the bioavailability result in series [1] was “strongly enhanced”.

As to `Cc1ccc(C)c(OCCCC(C)(C)C(=O)O)c1` [gemfibrozil, 5-(2,5-dimethylphenoxy)-2,2-dimethylpentanoic acid], in series [2], the solubility in water entry is given as “very poorly soluble”. The particle size result in series [3] is “approximately 5 microns”.

Source of the values: patent US7862751B2, “Formulation of fine particles using liquefield or dense gases” (MAP Pharmaceuticals, Inc., priority 2002, dated 2011).
